Key:
[1] = design: species or system Male Sprague-Dawley rats; settings: rat, in vivo, po, 100 mg/kg
Method: Oral gavage (PO) and/or intracolonic (IC) dosing solutions of delivery agent compound and human parathyroid hormone residues 1-34 (PTH) in water were prepared. A solution of the compound was made either with the sodium salt of the compound or by converting the free acid to its sodium salt. Typically, a solution of the compound was prepared in water and stirred, adding one equivalent of sodium hydroxide (1.0 N) when making the sodium salt. The final dosing solutions were prepared by mixing the compound solution with a PTH stock solution (typically having a concentration of 5 mg PTH/ml) and diluting to the desired volume (usually 3.0 ml). The final compound, PTH and volume dose amounts are listed below in Table 4.
The typical dosing and sampling protocols were as follows. Male Sprague-Dawley rats weighing between 200-250g were fasted for 24 hours and administered ketamine (44 mg/kg) and chlorpromazine (1.5 mg/kg) 15 minutes prior to dosing. A dosing group of five rats was administered one of the dosing solutions. For oral gavage (PO), an 11cm Rusch 8 French catheter was adapted to a 1 ml syringe with a pipette tip. The syringe was filled with dosing solution by drawing the solution through the catheter, which was then wiped dry. The catheter was placed down the esophagus leaving 1 cm of tubing past the rat's incisors. Solution was administered by pressing the syringe plunger. For intracolonic (IC) dosing, a 7.5 cm Rusch catheter tube (French 8 or 6) was adapted to a syringe with an Eppendorf pipette tip. The syringe was filled with the dosing solution by drawing the solution through the catheter tube. The catheter tube was wiped dry. K-Y jelly was applied to the tip, avoiding contact with the eye of the tube, and the tube was inserted into the colon through the anus until the tube was no longer visible. The solution was injected by pressing the syringe plunger, and the tube was removed.
Blood samples were collected serially from the tail artery, typically 0, 15, 30, 45, 60 and 90 minutes after oral administration and 0, 10, 20, 30, 60 and 90 minutes after IC administration. Serum PTH concentrations were quantified by a PTH radioimmunoassay kit (Kit # RIK 6101 from Peninsula Laboratories, Inc., San Carlos, CA). Previous studies indicated baseline values of about zero. Results from the five rats in each group were averaged for each time point. The maximum is reported below in Table 4.

[2] = Intracolonic delivery of heparin with delivery agent compound; heparin activity by activated partial thromboplastin time (APTT); format: in vivo, Male Sprague-Dawley rats; settings: rats, intracolonic (IC); compound 50 mg/kg, heparin 25 mg/kg, volume 1 ml/kg; maximum of time-point means of five rats; baseline about 20 sec
Method: Oral gavage (PO) and/or intracolonic (IC) dosing solutions containing a delivery agent compound and heparin sodium USP in 25% aqueous propylene glycol were prepared. Either the sodium salt of the compound was used or the free acid was converted to the sodium salt with one equivalent of sodium hydroxide. Typically, delivery agent compound and heparin (about 166-182 IU/mg) were mixed by vortex as dry powders. This dry mixture was dissolved in 25% v/v aqueous propylene glycol, vortexed and placed in a sonicator (about 37 °C). The pH was adjusted to about 7 (6.5 to 8.5) with aqueous sodium hydroxide (2N). The dosing solution was sonicated to produce a clear solution. The final volume was adjusted to about 3.0 ml. The final delivery agent compound dose, heparin dose and volume dose amounts are listed below in Table 2.
The typical dosing and sampling protocols were as follows. […]
Citrated blood samples were collected by cardiac puncture following the administration of ketamine (88 mg/kg), typically at 0.25, 0.5, 1.0 and 1.5 hours after administration. Heparin activity was determined by utilizing the activated partial thromboplastin time (APTT) according to the method of Henry, J.B., Clinical Diagnosis and Management by Laboratory Methods, Philadelphia, PA, W.B. Saunders (1979). […]

[3] = design: species or system Male Sprague-Dawley rats; settings: rat, in vivo, po, 150 mg/kg
Method: Oral dosing (PO) compositions of delivery agent compound and salmon calcitonin (sCT) in water were prepared. Typically, 450 mg of compound was added to 2.0 ml of water. Either the sodium salt of the compound was used or the free acid was converted to the sodium salt by stirring the resultant solution and adding one equivalent of sodium hydroxide (1.0 N) and diluting with water. The solution was vortexed, then heated (about 37°C) and sonicated. The pH was adjusted to about 7 (6.5 to 8.5) with sodium hydroxide or hydrochloric acid. 90 µg sCT from a stock solution was added to the solution. Water was then added to bring the total volume to about 3.0 ml (varies depending on solubility of the delivery agent compound) and vortexed. The final delivery agent compound dose, sCT dose and volume dose amounts are listed below in Table 1.
The typical dosing and sampling protocols were as follows. Male Sprague-Dawley rats weighing between 200-250g were fasted for 24 hours and administered ketamine (44 mg/kg) and chlorpromazine (1.5 mg/kg) 15 minutes prior to dosing. A dosing group of five rats was administered one of the dosing solutions. For oral dosing, an 11 cm Rusch 8 French catheter was adapted to a 1 ml syringe with a pipette tip. The syringe was filled with dosing solution by drawing the solution through the catheter, which was then wiped dry. The catheter was placed down the esophagus leaving 1 cm of tubing past the incisors. Solution was administered by pressing the syringe plunger.
Blood samples were collected serially from the tail artery, typically at 0, 10, 20, 30, 60 and 90 minutes after administration. Serum sCT was determined by testing with an EIA kit (Kit # EIAS-6003 from Peninsula Laboratories, Inc., San Carlos, CA). Numbers were adjusted according to baseline values obtained at 0 minutes. The limit of the assay is 80 pg/ml. The results from the five rats in each dosing group were averaged for each time point. The maximum is reported below in Table 1.

Row | SMILES | Mean Peak Serum [PTH] (pg/ml) ± SD [1] [pg/mL] | AUC [1] | Mean Peak Serum Set (pg/ml ± SD)(SE) [3] | Mean Peak APTT (sec) ± SD [2] [s]
1 | O=C(O)CCCCCCc1nnc(-c2cc(Cl)ccc2O)o1 [Compound 5] | 22.91 | 509.20 | 393 ± 431 (193) pg/ml | –
2 | O=C(O)CCCCCCc1nnc(-c2cc(Cl)cc(Cl)c2O)o1 [Compound 6] | 14.44 | 716.96 | 306 ± 339 (152) pg/ml | –
3 | Cc1ccc(-c2nnc(CCCCCCC(=O)O)o2)c(O)c1 [Compound 7] | 138.9 ± 118.46 | 4790.10 | – | –
4 | O=C(O)CCCCCCc1nnc(-c2ccccc2)o1 [Compound 10] | – | – | 37 ± 55 pg/mL | –

Now from value to molecule, other results behind:

Row | Mean Peak Serum [PTH] (pg/ml) ± SD [1] [pg/mL] | AUC [1] | Mean Peak Serum Set (pg/ml ± SD)(SE) [3] | SMILES | Mean Peak APTT (sec) ± SD [2] [s]
5 | 498.55 ± 237.83 | – | – | O=C(O)CCCCCCc1nnc(-c2ccccc2O)o1 [Compound 2] | 52.8 ± 31.9
6 | 57.88 | 2717.51 | – | O=C(O)CCCCc1nnc(-c2ccccc2O)o1 [Compound 3] | –
7 | 330.74 ± 410.57 | 6852.12 | – | O=C(O)CCCCCCCc1nnc(-c2ccccc2O)o1 [Compound 4] | –

Source: EP1156787B1, “OXADIAZOLE COMPOUNDS AND COMPOSITIONS FOR DELIVERING ACTIVE AGENTS” (priority 1999, dated 2000)
